In brackets after ≈: the same amount, converted by molar mass. Several values for one entry are separate records, joined by “and”; a condition that tells them apart may be missing. Equal values may be shown once.

This is an account of results in patent publication US20110105565A1, “WATER SOLUBLE SMALL MOLECULE INHIBITORS OF THE CYSTIC FIBROSIS TRANSMEMBRANE CONDUCTANCE REGULATOR” (THE REGENTS OF THE UNIVERSITY OF CALIFORNIA, priority 2008, published 2011).

Data set [1] can be described thus: Solubility measurements in saline (PBS, LC/MS). The class given is physicochemical. The following applies: for Solubility in saline: Table 3, PBS, DMSO <2%; for solubility in saline / aqueous solubility: values in text, LC/MS. As to the method:
Solubility measurements. A saturated compound solution was prepared by addition of DMSO stock to phosphate buffered saline (final DMSO 2%) followed by sonication for 5 min at 25° C. and shaking at room temperature for 1 h. After centrifugation at 15,000 rpm for 1 h, the supernatant was analyzed by LC/MS with concentration determined from area under the curve, standardized against calibration data. A standard curve for each compound was obtained by plotting area under the curve from chromatograms against inhibitor concentration. The concentration range of the standard solutions was 1-15 μM (for 5) and 1-100 μM (other compounds). In all cases, standard curves prepared were linear with r>0.998.
A saturated drug solution of a compound was prepared by addition of the compound in DMSO to phosphate buffered saline (PBS), followed by sonication for 5 min at 25° C. Final concentration of DMSO was <2%. Each saturated solution was centrifuged and filtered. The saturated supernatant solution was diluted and injected into LC/MS. The concentration was determined from area under the curve using a calibration curve.

For a further data set, the system named is FRT cells. Description: Cytotoxicity measurements, crystal violet staining of FRT cells. The following applies: 48 h; for % Cell viability 20 μM / % Cell viability 50 μM: crystal violet staining. The class given is cell-based, rat. The procedure: Cytotoxicity measurements. FRT cells in confluent monolayers were incubated with compounds for 2 days. Cells were washed 3 times, fixed (cytofix, 30 min) and stained with crystal violet (100 μl, 0.5%, 10 min) using standard procedures. Excess crystal violet was removed by washing, and dye was extracted with Sorenson's buffer (0.1 M sodium citrate, 50% ethanol, pH 4.2). Crystal violet was quantified by measurement of absorbance at 650 nm. The percentage crystal violet staining was determined from test wells measured 8 times, compared to blanks (wells not containing cells) and vehicle-treated cells.
Cytotoxicity analysis was performed for Tetrazolo-172, Oxo-172, α-Me-172 and Pyridine-NO-172 (Compound 17) and compared with CFTRinh-172 (Table 3). […] Crystal violet staining was reduced for Tetrazolo-172 and α-Me-172 at 50 μM.

For data set [2], the system named is MDCK cells. Description: MDCK cell cyst model of polycystic kidney disease. It is filed as cell-based, Canine. The following applies: 10 μM. The source says:
An MDCK cell model of polycystic kidney disease was used to screen CFTR inhibitors of the thiazolidinone and glycine hydrazide classes for reducing cyst formation and expansion. […] Culture of MDCK cells in three-dimensional collagen gels produces a polarized, single-layer, thinned epithelium surrounding a fluid-filled space, apical […] microvilli, a solitary cilium, and apical tight junctions (see, e.g., McAteer et al., Scan Elect Microsc (Pt 3): 1135-1150, 1986; McAteer et al., Scanning Microsc 2: 1739-1763, 1988; and Taide et al., Eur J Clin Invest 26: 506-513, 1996).
Type I MDCK cells (ATCC No. CCL-34) were cultured at 37° C. in a humidified 95% air/5% CO2 atmosphere in a 1:1 mixture of Dulbecco's modified Eagle's medium (DMEM) and Ham's F-12 nutrient medium supplemented with 10% fetal bovine serum (Hyclone), 100 U/mL penicillin and 100 μg/mL streptomycin. To generate cysts, four hundred MDCK cells were suspended in 0.4 ml of ice-cold Minimum Essential Medium containing 2.9 mg/mL collagen (PuRECOL, Inamed Biomaterials, Fremont Calif.), 10 mM HEPES, 27 mM NaHCO3, 100 U/mL penicillin and 100 μg/mL streptomycin (pH 7.4). The cell suspension was plated onto 24-well plates. After gelation, 1.5 mL of MDCK cell medium containing 10 μM forskolin was added to each well and plates were maintained at 37° C. in a 5% CO2 humidified atmosphere.
The compound structures together with their approximate CFTR inhibition potencies (expressed as IC50 values) are provided in FIGS. 3 and 4. Indicated IC50 values for T01-07, T10, T12-14 were reported by Ma et al. (J Clin Invest 110: 1651-1658 (2002)). IC50 values for T08, T11, and T16 were determined by short-circuit analysis performed according to methods described herein. Indicated IC50 values for G01-05, G8-16 were reported by Sonawane et al. (FASEB J. 20: 130-132 (2006); Sonawane et al., Gastroenterology 132:1234-44 (2007)). IC50 values for G06 and G07 were determined by short-circuit current analysis performed according to methods described herein.
Medium containing forskolin and test compounds was changed every 12 h. At day 6, cysts (with diameters >50 μm) and non-cyst cell colonies were counted by phase-contrast light microscopy at 20× magnification (546 nm monochromatic illumination) using a Nikon TE 2000-S inverted microscope. In some experiments, compounds were added to medium in the continued presence of forskolin from day 4 after seeding and the medium containing forskolin and compounds was changed every 12 h for 8 days. Micrographs showing the same cysts in collagen gels (identified by markings on plates) were obtained every 2 days. For determination of cyst growth, cyst diameters were measured using Image J software. At least 10 cysts/well and 3 wells/group were measured for each condition.

The conditions of data set [3]: cited references; cited from earlier work.
For data set [4], the target named is T1, human wildtype CFTR (Homo sapiens, UniProt P13569). Description: Fluorescence cell-based assay of CFTR inhibition (YFP iodide influx, FRT cells). Details: expressed in transfected cells; host or cells: Fisher rat thyroid (FRT) cells. The following applies: for CFTR inhibitory activity (in words): structure-activity discussion.
Protocol: CFTR inhibition by thiazolidinone derivative compounds was determined by a fluorescence cell-based assay utilizing doubly transfected cells expressing human wild-type CFTR and a yellow fluorescent protein (YFP) iodide sensor, as described (see, e.g., Galietta, et al., J. Physiol. 281:C1734-C1742 (2001)). Fisher rat thyroid (FRT) cells stably expressing wild-type human CFTR and YFP-H148Q were cultured on 96-well black-wall plates as described (see, e.g., Ma, et al., J. Clin. Invest. 110:1651-1658 (2002)). Cells in 96-well plates were washed three times, and then CFTR was activated by incubation for 15 minutes with an activating cocktail containing 10 μM forskolin, 20 μM apigenin, and 100 μM IBMX. Test compounds were added 5 minutes before assay of iodide influx in which cells were exposed to a 100 mM inwardly directed iodide gradient. YFP fluorescence was recorded for 2 seconds before and 12 seconds after creation of the iodide gradient. Initial rates of iodide influx were computed from the time course of decreasing fluorescence after the iodide gradient.
CFTR-facilitated iodide influx following extracellular iodide addition results in quenching of cytoplasmic YFP fluorescence.
Data set [5] has as its target T1, human wildtype CFTR. Description: Short-circuit current measurements, apical chloride current in FRT cells. It is filed as cell-based. Details: expressed in transfected cells; host or cells: FRT (Fisher rat thyroid) cells. The note with it: for inhibition of CFTR in short-circuit current analysis (in words): increasing concentration, forskolin-stimulated.
Protocol: Short-circuit current measurements. FRT cells (stably expressing human wildtype CFTR) were cultured on [sequence] filters with 1 cm^2 surface area (Corning-Costar) to resistance >1,000 Ω·cm^2 as described (see, e.g., Ma et al., J. Clin. Invest. 110:1651-1658 ((2002)); Sonawane et al., FASEB J. 20:130-132 (2006)). Filters were mounted in an Easymount Chamber System (Physiologic Instruments, San Diego). For apical current measurements, the basolateral hemichamber contained (in mM): 130 NaCl, 2.7 KCl, 1.5 KH2PO4, 1 CaCl2, 0.5 MgCl2, 10 Na-HEPES, 10 glucose (pH 7.3). The basolateral membrane was permeabilized with amphotericin B (250 μg/ml) for 30 min. In the apical solution 65 mM NaCl was replaced by sodium gluconate, and CaCl2 was increased to 2 mM. Solutions were bubbled with 95% O2/5% CO2 and maintained at 37° C. Current was recorded using a DVC-1000 voltage-clamp (World Precision Instruments) using Ag/AgCl electrodes and 1 M KCl agar bridges.
CFTR was stimulated by cAMP agonist forskolin and increasing concentration of test compounds was added.
For data set [6], the system named is MDCK cells. Description: MDCK cell cytotoxicity, crystal violet staining. It is filed as cell-based, Canine. The note with it: 20 μM, 72 h. The procedure: To test whether inhibition of cyst growth could be related to cytotoxicity, certain compounds were tested for their effects on cell viability, cell proliferation and apoptosis. Crystal violet staining was used to assess compound effects on cytotoxicity (see, e.g., Johnson et al., Clin Cancer Res 11: 6924-6932, 2005). MDCK cells were incubated for 24 h on 96-well plates, and then incubated for 72 h with test compounds at 20 μM. Medium was removed and adherent cells were fixed and stained for 30 min with 0.5% crystal violet in 20% methanol. Plates were washed with distilled water, and the stain was extracted with Sorenson's buffer (0.1 mol/L sodium citrate, pH 4.2, in 50% ethanol) overnight at 4° C., and absorbance measured at 570 nm.

Where [7] appears, read: Table 1, upper part, CFTR inhibitory activity, given as ranges, read-out: IC50.
[8] abbreviates: Table 2 summary table, given as ranges, read-out: IC50.
Setting [9] is: Table 3, inhibition potency, read-out: IC50.
Setting [10] is: values in text, forskolin-stimulated CFTR, read-out: IC50 (short-circuit current).
Where [11] appears, read: Table 1, lower parts, given as ranges, read-out: IC50.

T1 sequence (P13569 whole entry): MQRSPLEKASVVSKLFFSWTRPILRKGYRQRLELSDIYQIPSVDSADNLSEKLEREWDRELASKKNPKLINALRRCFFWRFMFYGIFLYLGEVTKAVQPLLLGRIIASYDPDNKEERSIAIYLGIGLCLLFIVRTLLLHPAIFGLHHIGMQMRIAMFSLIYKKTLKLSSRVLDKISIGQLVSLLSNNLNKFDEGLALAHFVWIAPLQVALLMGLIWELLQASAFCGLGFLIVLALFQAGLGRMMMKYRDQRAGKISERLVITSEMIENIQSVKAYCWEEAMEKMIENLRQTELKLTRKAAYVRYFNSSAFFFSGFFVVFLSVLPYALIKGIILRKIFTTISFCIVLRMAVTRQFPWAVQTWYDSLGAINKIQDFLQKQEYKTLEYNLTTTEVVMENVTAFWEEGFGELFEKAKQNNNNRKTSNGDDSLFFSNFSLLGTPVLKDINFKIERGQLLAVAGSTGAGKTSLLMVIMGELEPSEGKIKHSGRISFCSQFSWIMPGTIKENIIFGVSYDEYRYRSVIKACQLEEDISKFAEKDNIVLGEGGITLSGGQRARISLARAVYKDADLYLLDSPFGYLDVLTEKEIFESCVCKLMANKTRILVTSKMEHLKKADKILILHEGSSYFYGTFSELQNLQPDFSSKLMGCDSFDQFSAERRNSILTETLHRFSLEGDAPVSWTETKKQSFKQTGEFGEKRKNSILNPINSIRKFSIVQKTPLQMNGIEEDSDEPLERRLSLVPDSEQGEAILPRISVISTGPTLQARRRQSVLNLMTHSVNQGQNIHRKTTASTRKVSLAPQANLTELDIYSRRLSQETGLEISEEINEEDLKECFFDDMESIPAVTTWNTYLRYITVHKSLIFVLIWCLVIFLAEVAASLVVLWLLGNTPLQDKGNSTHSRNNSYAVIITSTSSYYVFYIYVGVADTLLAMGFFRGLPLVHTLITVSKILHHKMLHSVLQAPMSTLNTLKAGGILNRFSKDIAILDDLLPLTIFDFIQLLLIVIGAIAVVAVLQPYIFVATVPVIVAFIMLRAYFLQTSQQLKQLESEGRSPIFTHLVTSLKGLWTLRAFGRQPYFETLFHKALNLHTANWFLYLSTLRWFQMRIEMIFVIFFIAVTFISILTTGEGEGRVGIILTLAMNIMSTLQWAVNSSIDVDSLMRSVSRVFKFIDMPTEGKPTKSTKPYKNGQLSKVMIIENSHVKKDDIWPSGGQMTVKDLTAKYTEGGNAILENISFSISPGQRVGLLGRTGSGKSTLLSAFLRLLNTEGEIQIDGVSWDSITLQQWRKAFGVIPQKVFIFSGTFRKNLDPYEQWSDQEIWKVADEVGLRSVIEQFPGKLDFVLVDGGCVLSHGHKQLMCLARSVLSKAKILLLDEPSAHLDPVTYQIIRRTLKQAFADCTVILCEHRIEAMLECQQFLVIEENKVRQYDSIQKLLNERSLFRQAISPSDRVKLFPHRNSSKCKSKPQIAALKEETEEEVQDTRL

The IC50 is the point on the concentration scale where inhibition reaches its midpoint. For the compound `O=C(O)c1ccc(/C=C2\SC(=S)N(c3cccc(C(F)(F)F)c3)C2=O)cc1` [Compound 5, (Z)-4-((4-oxo-2-thioxo-3-(3-(trifluoromethyl)phenyl)thiazolidin-5-ylidene)methyl)benzoic acid, reference compound], the “Solubility in saline” value in data set [1] amounted to 17 µM (≈ 6.96 µg/mL). For the same compound, the “% Cell viability 20 μM” value in the data set on FRT cells is listed as 86%. In the data set on MDCK cells [2], the “effect on MDCK cyst enlargement/formation (in words)” value is “inhibited cyst formation, but to a lesser extent”. Moreover, the water solubility result in data set [3] is on record as “less than 17 μM”. Further, the half-inhibitory concentration (IC50) is 0.1 to 1 µM on human wildtype CFTR [4] (setting [7]); 0.1 to 1 µM on human wildtype CFTR [4] (setting [8]); 0.38 ± 0.04 µM on human wildtype CFTR [5] (setting [9]); 0.4 µM and 0.25 to 0.5 µM at human wildtype CFTR [5] (setting [10]).
As to `O=C(O)c1ccc(NC(=S)C2SC(=S)N(c3cccc(C(F)(F)F)c3)C2=O)cc1O` (centres unmarked) [Compound 52, 2-hydroxy-4-(4-oxo-2-thioxo-3-(3-(trifluoromethyl)phenyl)thiazolidine-5-carbothioamido)benzoic acid], in data set [1], the “water solubility (in words)” value is given as “highly water soluble”. Besides, the IC50 on human wildtype CFTR [4] (setting [11]) and at human wildtype CFTR [4] (setting [8]) was 10 to 20 µM in each case. Besides, the “CFTR inhibitory activity (in words)” value at human wildtype CFTR [4] was “inactive”.
In the case of `O=C(O)c1ccc(/C=C2\SC(=O)N(c3cccc(C(F)(F)F)c3)C2=O)cc1` [Compound 47, (Z)-4-((2,4-dioxo-3-(3-(trifluoromethyl)phenyl)thiazolidin-5-ylidene)methyl)benzoic acid], the “increase of solubility in saline/water relative to CFTRinh-172” value in data set [1] is on record as around 25 fold. Also, in data set [1], the “Solubility in saline” value was 420 µM (≈ 165 µg/mL). Further, the “% Cell viability 20 μM” value in the data set on FRT cells stood at 93%. For the same compound, in the data set on FRT cells (50 μM), the “% Cell viability 50 μM” value stood at 91%. In addition, the IC50 on human wildtype CFTR [4] (setting [11]) was 1 to 2 µM; at human wildtype CFTR [4] (setting [8]), 1 to 2 µM; at human wildtype CFTR [5] (setting [9]) it was 1.4 ± 0.2 µM; on human wildtype CFTR [5] (setting [10]) it was 1 to 2 µM. For the same compound, the “inhibition of CFTR in short-circuit current analysis (in words)” value (“inhibition of CFTR” below) on human wildtype CFTR [5] is “dose dependant inhibition”. The “reduction of CFTR inhibition potency relative to CFTRinh-172” value on human wildtype CFTR [5] (short-circuit current assays) came to 3.6 fold.
`Cc1c(N2C(=O)/C(=C/c3ccc(C(=O)O)cc3)SC2=S)cccc1C(F)(F)F` [Compound 18, (Z)-4-((3-(2-methyl-3-(trifluoromethyl)phenyl)-4-oxo-2-thioxothiazolidin-5-ylidene)methyl)benzoic acid]: the “solubility in saline / aqueous solubility” value in data set [1] stood at 259 µM (≈ 110 µg/mL). Moreover, the “% Cell viability 20 μM” value with FRT cells stood at 89%. Moreover, the “Crystal violet staining at 50 μM (in words)” value in the data set with FRT cells (50 μM) is listed as “reduced”. The “% Cell viability 50 μM” value with FRT cells (50 μM) was found to be 72%. The IC50 on human wildtype CFTR [4] (setting [7]) is 5 to 10 µM; at human wildtype CFTR [4] (setting [8]), 5 to 10 µM; on human wildtype CFTR [5] (setting [9]), 8.2 ± 0.4 µM; on human wildtype CFTR [5] (setting [10]) it was 8 µM and 8 to 10 µM. Also, the “inhibition of CFTR” value against human wildtype CFTR [5] was “dose dependant inhibition”.
`O=C1/C(=C/c2cc[n+]([O-])cc2)SC(=S)N1c1cccc(C(F)(F)F)c1` [Compound 17, (Z)-4-((4-oxo-2-thioxo-3-(3-(trifluoromethyl)phenyl)thiazolidin-5-ylidene)methyl)pyridine 1-oxide]: the “solubility in saline / aqueous solubility” value in data set [1] came out at 264 µM (≈ 101 µg/mL). Further, the concentration for half-maximal inhibition (IC50) on human wildtype CFTR [4] (setting [8]) was 5 to 10 µM; at human wildtype CFTR [4] (Tables 1 and 2, read-out: IC50 (CFTR inhibition)), 5 to 10 µM; at human wildtype CFTR [5] (setting [9]), 8.7 ± 0.7 µM; on human wildtype CFTR [5] (setting [10]) it was 9 µM and 7 to 9 µM. Also, the “inhibition of CFTR” value against human wildtype CFTR [5] is given as “dose dependant inhibition”.
Turning to `O=C1/C(=C/c2cc(Br)c(O)c(Br)c2O)SC(=S)N1c1cccc(C(F)(F)F)c1` [Compound 15, (Z)-5-(3,5-dibromo-2,4-dihydroxybenzylidene)-2-thioxo-3-(3-(trifluoromethyl)phenyl) thiazolidin-4-one], the “MDCK cell viability (in words)” value in the data set on MDCK cells [6] was “reduced MDCK cell viability”. In addition, the concentration for half-maximal inhibition (IC50) at human wildtype CFTR [4] (setting [7]) and on human wildtype CFTR [4] (setting [8]) was 5 to 10 µM in each case. Besides, the “CFTR inhibitory activity (in words)” value on human wildtype CFTR [4] was “modest inhibition activity”.
